Experimental data: US20260199236A1, “PERFLUORINATED MICELLES AND MEDICAL USES THEREOF” (COMMISSARIAT A L'ENERGIE ATOMIQUE ET AUX ENERGIES …, priority 2022, published 2026)

Tests used:
[1] = Oxygen release from O2-saturated colloid injected into degassed water; assay type: physicochemical; conditions: 200 μL of 7.6 mM surfactant colloid into degassed water
Experimental: To this end, a small volume of oxygen-saturated micelle colloid was injected with variable PFTD-PEG concentrations into a large volume of degassed water and the release of oxygen was monitored by continuous electrochemical monitoring over time (FIG. 3A). From this set of experiments, a clear correlation between the micelle concentration and the amount of released oxygen was observed. In fact, 15 min after addition of 200 μL of a 5, 10, or 20 mg mL^−1 PFTD-PEG colloid to 100 mL of degassed water, the oxygen concentration reached values of 2.9, 4.3, and 5.6 μM, respectively. As a reference, the oxygen concentration reached only 1.1 μM when the same volume of oxygen-saturated water was added instead of the micelle colloid. The effect of the fluorinated PFTD-PEG micelles on oxygen delivery was compared to that of micelles obtained from commonly used amphiphiles, namely sodium dodecyl sulfate (SDS) and Triton X100.

[2] = Oxygen content decay of O2-saturated dispersions on ambient air equilibration; conditions: first-order fit, SDS 9 mM, Triton X-100 3.8 mM; for Release rate (oxygen): PFTD-PEG 3.8 mM
Text: Another commonly used method consists in measuring the rate of decrease of the oxygen concentration of a given micellar solution from O2-saturation to equilibrium with ambient air. In the case of perfluorinated micelles, any observed difference in deoxygenation rate can be directly related the diffusion of O2 from the perfluorinated core to the aqueous medium while oxygen dissolved in the saturated dispersant (i.e. water) escapes to the atmosphere.
To assess the dioxygen release capacity of PFTD-PEG micelles, colloids (4 mL, c=3.8 mM and 7.6 mM) were pre-saturated with dioxygen under agitation in a sealed round-bottom flask. After saturation, agitation was stopped and the PFTD-PEG micellar suspension was left to equilibrate with ambient air. Evolution of dioxygen concentration in the medium over time was recorded using a dissolved dioxygen sensor.
In this equation, y0 corresponds to the value of y at t=0 s while A corresponds to the amplitude of the curve such that A=Plateau−y0. This model provides essential parameters such as the oxygen half-life and the oxygen release rate from the different micellar suspensions.

## CCCCCCCCCCCCOS(=O)(=O)[O-].[Na+] [SDS, sodium dodecyl sulfate]
[1]
  oxygen concentration: 2.7 mM
[2]
  Release rate (oxygen): 2.61 ± 0.03 10^−4 s^−1

## Triton X-100
[1]
  oxygen concentration: 3.6 mM
[2]
  Release rate (oxygen): 2.49 ± 0.04 10^−4 s^−1
[2]; PFTD-PEG 3.8 mM (10 mg mL^−1)
  t1/2 (oxygen half-life): 46.422 ± 0.832 min
